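How tested: cells in 96-well plates exposed to compound for 48 hours at five concentrations. GI50 marks 50% less growth. Definition used: TGI = concentration required for complete inhibition of growth.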
Columns and labels:
Assay in all cases: NCI-60 cell line screen, 48 h
NCI-H460 lung = system: NCI-H460 lung
OVCAR-5 ovarian = system: OVCAR-5 ovarian
K-562 leukemia = system: K-562 leukemia
MOLT-4 leukemia = system: MOLT-4 leukemia
BT-549 breast = system: BT-549 breast
RXF 393 renal = system: RXF 393 renal
M14 melanoma = system: M14 melanoma
SK-OV-3 ovarian = system: SK-OV-3 ovarian
SF-539 CNS = system: SF-539 CNS
CAKI-1 renal = system: CAKI-1 renal
T-47D breast = system: T-47D breast
COLO 205 colon = system: COLO 205 colon
OVCAR-3 ovarian = system: OVCAR-3 ovarian
SNB-19 CNS = system: SNB-19 CNS
SN12C renal = system: SN12C renal
SW-620 colon = system: SW-620 colon
HT29 colon = system: HT29 colon
KM12 colon = system: KM12 colon
EKVX NSCLC = system: EKVX NSCLC
CCRF-CEM leukemia = system: CCRF-CEM leukemia
HCC-2998 colon = system: HCC-2998 colon
MDA-MB-435 = system: MDA-MB-435
SR leukemia = system: SR leukemia
OVCAR-4 ovarian = system: OVCAR-4 ovarian
DU-145 prostate = system: DU-145 prostate
MALME-3M melanoma = system: MALME-3M melanoma
786-0 renal = system: 786-0 renal
SNB-75 CNS = system: SNB-75 CNS
RPMI-8226 leukemia = system: RPMI-8226 leukemia
TK-10 renal = system: TK-10 renal

For `N#C/C(=C1/C(=O)Nc2ccccc21)c1nnc(NC(=O)c2ccc(-n3c(=O)[nH]c4ccccc4c3=O)cc2)s1`, the TGI (NCI-H460 lung) was greater than 100 µM, the GI50 (OVCAR-5 ovarian) was greater than 100 µM and the TGI (OVCAR-5 ovarian) was greater than 100 µM. The GI50 (K-562 leukemia) was 26.1 µM, the TGI (K-562 leukemia) was greater than 100 µM and the GI50 (MOLT-4 leukemia) was 20.7 µM. For the same molecule, the TGI (MOLT-4 leukemia) was 60.9 µM, the GI50 (BT-549 breast) was 39.4 µM and the TGI (BT-549 breast) was greater than 100 µM. For the same molecule, the GI50 (RXF 393 renal) was 14.5 µM, the TGI (RXF 393 renal) was greater than 100 µM and the GI50 (M14 melanoma) was 41.2 µM. For the same molecule, the TGI (M14 melanoma) was greater than 100 µM, the GI50 (SK-OV-3 ovarian) was greater than 100 µM and the TGI (SK-OV-3 ovarian) was greater than 100 µM. The GI50 (SF-539 CNS) was 48.3 µM, the TGI (SF-539 CNS) was greater than 100 µM and the GI50 (CAKI-1 renal) was 39 µM. The TGI (CAKI-1 renal) was greater than 100 µM, the GI50 (T-47D breast) was 11.2 µM and the TGI (T-47D breast) was greater than 100 µM. It also gave a GI50 (COLO 205 colon) of 22.1 µM, a TGI (COLO 205 colon) of 79.8 µM and a GI50 (OVCAR-3 ovarian) of 10.9 µM. The TGI (OVCAR-3 ovarian) was 71.6 µM, the GI50 (SNB-19 CNS) was greater than 100 µM and the TGI (SNB-19 CNS) was greater than 100 µM. The GI50 (SN12C renal) was 58.3 µM, the TGI (SN12C renal) was greater than 100 µM and the GI50 (SW-620 colon) was 29.5 µM. The TGI (SW-620 colon) was greater than 100 µM, the GI50 (HT29 colon) was 31.7 µM and the TGI (HT29 colon) was greater than 100 µM. For the same molecule, the GI50 (KM12 colon) was 33.4 µM, the TGI (KM12 colon) was greater than 100 µM and the GI50 (EKVX NSCLC) was 46.1 µM. It also gave a TGI (EKVX NSCLC) greater than 100 µM, a GI50 (CCRF-CEM leukemia) of 22.2 µM and a TGI (CCRF-CEM leukemia) of 64.5 µM. For the same molecule, the GI50 (HCC-2998 colon) was 39.8 µM, the TGI (HCC-2998 colon) was greater than 100 µM and the GI50 (MDA-MB-435) was 17.2 µM. The TGI (MDA-MB-435) was 35.8 µM, the GI50 (SR leukemia) was 33.1 µM and the TGI (SR leukemia) was greater than 100 µM. It also gave a GI50 (OVCAR-4 ovarian) of 23.1 µM, a TGI (OVCAR-4 ovarian) greater than 100 µM and a GI50 (DU-145 prostate) of 53.6 µM. For the same molecule, the TGI (DU-145 prostate) was greater than 100 µM, the GI50 (MALME-3M melanoma) was 45.6 µM and the TGI (MALME-3M melanoma) was greater than 100 µM. For the same molecule, the GI50 (786-0 renal) was greater than 100 µM, the TGI (786-0 renal) was greater than 100 µM and the GI50 (SNB-75 CNS) was 16.2 µM. For the same molecule, the TGI (SNB-75 CNS) was greater than 100 µM, the GI50 (RPMI-8226 leukemia) was 27.1 µM and the TGI (RPMI-8226 leukemia) was greater than 100 µM. It also gave a GI50 (TK-10 renal) greater than 100 µM and a TGI (TK-10 renal) greater than 100 µM.

Reference: PubChem BioAssay (NCI)
